The source made the active and inactive calls. The calls are words filed in the database; no cut-off is given here.
How the values were obtained:
Esophagus [1] = experiment: Effect on Biomphalaria glabrata esophageal rhythmicity assessed as increase in contraction at 1.0 x 10^-7 to 9.6 x 10^-6 M; assay type: functional
Biomphalaria glabrata [2] = experiment: Effect on Biomphalaria glabrata intestinal rhythmicity assessed as tissue contraction in presence of 8.5 to 320 nM methysergide; assay type: functional, tissue-based; conditions: Intestine
Biomphalaria glabrata [3] = experiment: Effect on Biomphalaria glabrata intestinal rhythmicity assessed as increase in contraction at 1.2 x 10^-6 to 1.9 x 10^-5 M; assay type: functional, tissue-based; conditions: Intestine
Esophagus [4] = experiment: Effect on Biomphalaria glabrata esophageal rhythmicity assessed as potentiation in amplitude of contraction at 4.8 x 10^-10 M; assay type: functional, tissue-based
Biomphalaria glabrata [5] = experiment: Effect on Biomphalaria glabrata intestinal rhythmicity assessed as tissue contraction in presence of 8.5 to 320 nM cyproheptadine; assay type: functional, tissue-based; conditions: Intestine
Esophagus [6] = experiment: Effect on Biomphalaria glabrata esophageal rhythmicity assessed as tissue contraction in presence of 8.5 to 320 nM cyproheptadine; assay type: functional, tissue-based
Esophagus [7] = experiment: Effect on Biomphalaria glabrata esophageal rhythmicity assessed as increase in phasic contraction in relaxation phase at 1.92 x 10^-8 to 4 x 10^-7 M; assay type: functional, tissue-based
Esophagus [8] = experiment: Effect on Biomphalaria glabrata esophageal rhythmicity assessed as tissue contraction in presence of 8.5 to 320 nM methysergide; assay type: functional, tissue-based
Biomphalaria glabrata [9] = experiment: Effect on Biomphalaria glabrata intestinal rhythmicity assessed as potentiation in amplitude of contraction at 4.8 x 10^-10 M; assay type: functional, tissue-based; conditions: Intestine
Esophagus [10] = experiment: Effect on Biomphalaria glabrata esophageal rhythmicity assessed as enhanced tissue contracture at 4.0 x 10^-7 to 3 x 10^-6 M; assay type: functional, tissue-based
Biomphalaria glabrata [11] = experiment: Inhibition of calcium uptake in Biomphalaria glabrata assessed as available calcium in test solution at 0.25 ppm after 1 week; assay type: functional
Biomphalaria glabrata [12] = experiment: Effect on Biomphalaria glabrata intestinal rhythmicity assessed as potentiation of tissue contracture in presence of 0.1 uM verapamil; assay type: functional, tissue-based; conditions: Intestine
Biomphalaria glabrata [13] = experiment: Inhibition of calcium uptake in Biomphalaria glabrata assessed as available calcium in test solution at 0.25 ppm after 6 weeks; assay type: functional
Biomphalaria glabrata [14] = experiment: Inhibition of calcium uptake in Biomphalaria glabrata assessed as available calcium in test solution at 0.25 ppm after 4 weeks; assay type: functional
Biomphalaria glabrata [15] = experiment: Inhibition of calcium uptake in Biomphalaria glabrata assessed as available calcium in test solution at 0.125 ppm after 2 weeks; assay type: functional
Biomphalaria glabrata [16] = experiment: Inhibition of calcium uptake in Biomphalaria glabrata assessed as available calcium in test solution at 0.125 ppm after 4 weeks; assay type: functional
Biomphalaria glabrata [17] = experiment: Inhibition of calcium uptake in Biomphalaria glabrata assessed as available calcium in test solution at 0.125 ppm after 3 weeks; assay type: functional
Biomphalaria glabrata [18] = experiment: Inhibition of calcium uptake in Biomphalaria glabrata assessed as available calcium in test solution at 0.25 ppm after 7 weeks; assay type: functional
Esophagus [19] = experiment: Effect on Biomphalaria glabrata esophageal rhythmicity assessed as potentiation of tissue contracture in presence of 1 uM atropine; assay type: functional, tissue-based
Biomphalaria glabrata [20] = experiment: Effect on Biomphalaria glabrata intestinal rhythmicity assessed as potentiation of tissue contracture in presence of 10 uM propranolol; assay type: functional, tissue-based; conditions: Intestine
Biomphalaria glabrata [21] = experiment: Effect on Biomphalaria glabrata intestinal rhythmicity assessed as potentiation of tissue contracture in presence of 1 uM atropine; assay type: functional, tissue-based; conditions: Intestine
Esophagus [22] = experiment: Effect on Biomphalaria glabrata esophageal rhythmicity assessed as potentiation of tissue contracture in presence of 0.1 uM verapamil; assay type: functional
Biomphalaria glabrata [23] = experiment: Inhibition of calcium uptake in Biomphalaria glabrata assessed as available calcium in test solution at 0.125 ppm after 6 weeks; assay type: functional
Esophagus [24] = experiment: Effect on Biomphalaria glabrata esophageal rhythmicity assessed as potentiation of tissue contracture in presence of 10 uM propranolol; assay type: functional, tissue-based
Biomphalaria glabrata [25] = experiment: Inhibition of calcium uptake in Biomphalaria glabrata assessed as available calcium in test solution at 0.125 ppm after 8 weeks; assay type: functional
Esophagus [26] = experiment: Effect on Biomphalaria glabrata esophageal rhythmicity assessed as potentiation of tissue contracture in presence of 1 to 100 nM cyproheptadine; assay type: functional, tissue-based
Biomphalaria glabrata [27] = experiment: Effect on Biomphalaria glabrata intestinal rhythmicity assessed as enhanced tissue contracture at 4.0 x 10^-7 to 3 x 10^-6 M; assay type: functional, tissue-based; conditions: Intestine
Biomphalaria glabrata [28] = experiment: Inhibition of calcium uptake in Biomphalaria glabrata assessed as available calcium in test solution at 0.25 ppm after 2 weeks; assay type: functional
Biomphalaria glabrata [29] = experiment: Inhibition of calcium uptake in Biomphalaria glabrata assessed as available calcium in test solution at 0.125 ppm after 7 weeks; assay type: functional
Biomphalaria glabrata [30] = experiment: Inhibition of calcium uptake in Biomphalaria glabrata assessed as available calcium in test solution at 0.125 ppm after 5 weeks; assay type: functional
Esophagus [31] = experiment: Effect on Biomphalaria glabrata esophageal rhythmicity assessed as potentiation of tissue contracture in presence of 0.1 mM lanthanum; assay type: functional, tissue-based
Biomphalaria glabrata [32] = experiment: Effect on Biomphalaria glabrata intestinal rhythmicity assessed as potentiation of tissue contracture in presence of 1 to 100 nM cyproheptadine; assay type: functional, tissue-based; conditions: Intestine
Biomphalaria glabrata [33] = experiment: Effect on Biomphalaria glabrata intestinal rhythmicity assessed as potentiation of tissue contracture in presence of 1 to 100 nM methysergide; assay type: functional, tissue-based; conditions: Intestine
Biomphalaria glabrata [34] = experiment: Inhibition of calcium uptake in Biomphalaria glabrata assessed as available calcium in test solution at 0.125 ppm after 10 weeks; assay type: functional
Biomphalaria glabrata [35] = experiment: Inhibition of calcium uptake in Biomphalaria glabrata assessed as available calcium in test solution at 0.25 ppm after 8 weeks; assay type: functional
Biomphalaria glabrata [36] = experiment: Inhibition of calcium uptake in Biomphalaria glabrata assessed as available calcium in test solution at 0.25 ppm after 5 weeks; assay type: functional
Biomphalaria glabrata [37] = experiment: Inhibition of calcium uptake in Biomphalaria glabrata assessed as available calcium in test solution at 0.125 ppm after 1 week; assay type: functional
Biomphalaria glabrata [38] = experiment: Inhibition of calcium uptake in Biomphalaria glabrata assessed as available calcium in test solution at 0.25 ppm after 9 weeks; assay type: functional
Biomphalaria glabrata [39] = experiment: Inhibition of calcium uptake in Biomphalaria glabrata assessed as available calcium in test solution at 0.125 ppm after 9 weeks; assay type: functional
Biomphalaria glabrata [40] = experiment: Inhibition of calcium uptake in Biomphalaria glabrata assessed as available calcium in test solution at 0.25 ppm after 10 weeks; assay type: functional
Biomphalaria glabrata [41] = experiment: Inhibition of calcium uptake in Biomphalaria glabrata assessed as available calcium in test solution at 0.25 ppm after 3 weeks; assay type: functional
Biomphalaria glabrata [42] = experiment: Effect on Biomphalaria glabrata intestinal rhythmicity assessed as potentiation of tissue contracture in presence of 0.1 mM lanthanum; assay type: functional, tissue-based; conditions: Intestine
Esophagus [43] = experiment: Effect on Biomphalaria glabrata esophageal rhythmicity assessed as potentiation of tissue contracture in presence of 1 to 100 nM methysergide; assay type: functional, tissue-based

NCCc1c[nH]c2ccc(O)cc12
Activity (Esophagus [1]): Active | Activity (Biomphalaria glabrata [2]): inactive | Activity (Biomphalaria glabrata [3]): Active | Activity (Esophagus [4]): Active | Activity (Biomphalaria glabrata [5]): inactive | Activity (Esophagus [6]): inactive | Activity (Esophagus [7]): Active | Activity (Esophagus [8]): inactive | Activity (Biomphalaria glabrata [9]): Active

CC(=O)N[C@H]1[C@H](O[C@H]2CC[C@]3(C)[C@H]4CC=C5[C@H]6CC(C)(C)CC[C@]6(C(=O)O)CC[C@@]5(C)[C@]4(C)CC[C@H]3C2(C)C)O[C@H](CO)[C@@H](O)[C@@H]1O [ARIDANIN]
Activity (Esophagus [10]): Active | Activity (Biomphalaria glabrata [11]): 28.3 ppm | Activity (Biomphalaria glabrata [12]): inactive | Activity (Biomphalaria glabrata [13]): 52.5 ppm | Activity (Biomphalaria glabrata [14]): 26.5 ppm | Activity (Biomphalaria glabrata [15]): 19.9 ppm | Activity (Biomphalaria glabrata [16]): 28.9 ppm | Activity (Biomphalaria glabrata [17]): 22.2 ppm | Activity (Biomphalaria glabrata [18]): 73 ppm | Activity (Esophagus [19]): Active | Activity (Biomphalaria glabrata [20]): Active | Activity (Biomphalaria glabrata [21]): Active | Activity (Esophagus [22]): inactive | Activity (Biomphalaria glabrata [23]): 51.1 ppm | Activity (Esophagus [24]): Active | Activity (Biomphalaria glabrata [25]): 49.8 ppm | Activity (Esophagus [26]): inactive | Activity (Biomphalaria glabrata [27]): Active | Activity (Biomphalaria glabrata [28]): 19.8 ppm | Activity (Biomphalaria glabrata [29]): 68.7 ppm | Activity (Biomphalaria glabrata [30]): 18.7 ppm | Activity (Esophagus [31]): inactive | Activity (Biomphalaria glabrata [32]): inactive | Activity (Biomphalaria glabrata [33]): Active | Activity (Biomphalaria glabrata [34]): 89 ppm | Activity (Biomphalaria glabrata [35]): 47.7 ppm | Activity (Biomphalaria glabrata [36]): 19 ppm | Activity (Biomphalaria glabrata [37]): 28.2 ppm | Activity (Biomphalaria glabrata [38]): 70.8 ppm | Activity (Biomphalaria glabrata [39]): 69.6 ppm | Activity (Biomphalaria glabrata [40]): 90.4 ppm | Activity (Biomphalaria glabrata [41]): 24.2 ppm | Activity (Biomphalaria glabrata [42]): inactive | Activity (Esophagus [43]): Active
